Data reported in patent US7268160B2, “Remedies” (Takara Bio, Inc., priority 2000, dated 2007).

Test system: NGF production in the L-M cells
Assay: Enhancement for NGF production by flavonols, Example 16 (24 hours culture)
Type: cell-based, rat
Conditions: for Enhancement of NGF production (in words): L-M cells; for Enhancement Ratio (%): negative control (distilled water) = 100%
Protocol: L-M cells (ATCC CCL-1.2) from […] fibroblasts were suspended in an M199 medium (manufactured by ICN) containing 0.5% bactopeptone (manufactured by Gibco BRL) so as to have a concentration of 1.5×10^5 cells/ml. The suspension was put in a 96-well plate in an amount of 0.1 ml each well, and the cells were aseptically cultured. After culturing the cells for 3 days, the medium was removed therefrom, and exchanged with an M199 medium containing 0.5% bovine serum albumin (manufactured by Sigma).
As the negative control, that with addition of distilled water was used. After the termination of the culture, the NGF concentration in the culture medium was assayed by an enzyme immunoassay method (NGF Emax Immuno Assay System, manufactured by Promega). The degree of the enhancement for NGF production at each added amount was expressed in percentage as the enhancement ratio (%) on the basis of the NGF concentration in the cell culture medium at each added amount when the NGF concentration in the cell culture medium of the negative control was defined as 100%. The experiment was carried out twice, and an average value was taken.
The enhancing activity for NGF production of myricitrin (manufactured by Funakoshi) was assayed in the same manner as in item (1) of Example 16. Myricitrin was added so as to have a final concentration of 0, 31.3, 62.5, 125 or 250 μM.
The enhancing activity for NGF production of quercitrin (manufactured by Sigma) was assayed in the same manner as in item (1) of Example 16. Quercitrin was added so as to have a final concentration of 0, 31.3, 62.5, 125 or 250 μM.

Compound	Enhancement of NGF production (in words)	Enhancement Ratio (%) (added amount 31.3 μM)	Enhancement Ratio (%) (added amount 62.5 μM)	Enhancement Ratio (%) (added amount 125 μM)	Enhancement Ratio (%) (added amount 250 μM)
O=c1c(O)c(-c2cc(O)c(O)c(O)c2)oc2cc(O)cc(O)c12 [Myricetin, myricetin]	enhanced NGF production in the L-M cells in a concentration-dependent manner	–	–	–	–
C[C@H]1O[C@@H](Oc2c(-c3cc(O)c(O)c(O)c3)oc3cc(O)cc(O)c3c2=O)[C@@H](O)[C@@H](O)[C@@H]1O [Myricitrin, myricitrin]	enhanced NGF production in the L-M cells in a concentration-dependent manner	105	159	294	304
C[C@@H]1O[C@@H](Oc2c(-c3ccc(O)c(O)c3)oc3cc(O)cc(O)c3c2=O)[C@H](O)[C@H](O)[C@H]1O [Quercitrin, quercitrin]	enhanced NGF production in the L-M cells in a concentration-dependent manner	122	140	193	207
O=c1c(O)c(-c2ccc(O)c(O)c2)oc2cc(O)cc(O)c12 [Quercetin, quercetin]	enhanced NGF production in the L-M cells in a concentration-dependent manner	122	108	–	219
